From US20240238310A1, “MODULATION OF SEX STEROID HORMONE PRODUCTION AND ACTIVITY FOR TREATING AND PREVENTING HERNIAS” (Northwestern University, priority 2020, published 2024) come the findings set out here.

Experiment [1] deals with LAMT primary fibroblasts from Arom^hum mice. Put plainly: mRNA levels of estrogen-responsive and fibrotic genes in LAMT primary fibroblasts after E2 antagonist treatment. The experiment is classed as cell-based, mouse. To be noted: MPP, pretreated 2 hours before addition of E2 (10 nM). How it is done:
FIG. 10. mRNA levels of estrogen-responsive genes [Pgr (A, E) and Greb1 (B, F)] and fibrotic genes [Spon2 (C, G), Kiss1 (D), and Eln (H)] in LAMT primary fibroblasts from Arom^hum mice after treatment with 100 nM ICI 182,780 (ICI) or […] MPP in the presence or absence of E2 (10 nM). Cells were pretreated with ICI 182,780 or MPP for 2 hours before the addition of E2. Veh, vehicle. *P<0.05, **P<0.01. GAPDH mRNA levels served as controls.
Experiment 1a2: Does the general E2 antagonist fulvestrant, which downregulates and blocks ER, or ERα-selective E2 antagonist MPP prevent, arrest or reverse LAMT muscle fibrosis, atrophy and inguinal hernias in male Arom^hum mice? […] Here, we will define whether the effects of E2 on hernia formation in LAMT is mediated via ERα in vivo. We will treat Arom^hum or WT mice with vehicle, fulvestrant (ICI 182,780), or MPP. […] Circulating and muscle tissue E2 levels will be measured using LC-MS^2. To validate the effects of each treatment, protein expression of ERα and E2/ERα target genes (Ccnd1, Pgr, and Greb1), and cell proliferation markers (Ki67 and PCNA) will be determined by IHC and immunoblotting. Fibrotic-related genes (Kiss1, Ren1, Emb, Timp1, Spon2, and Eln), the ECM marker Col1a1, and the myocyte marker Myh will be assessed using qPCR and IHC in LAMT after fulvestrant, MPP, and/or letrozole treatment. […]

The subject of the next experiment is LAMT WT fibroblasts. Put plainly: R1881 treatment of primary fibroblasts, western blot (AR, PCNA). To be noted: for increase in PCNA levels (densitometry normalized to GAPDH): preliminary data. The experiment is classed as cell-based, mouse. For orientation: In western blotting, separated proteins are transferred to a membrane and probed.
Experiment [2] relates to LAMT Arom^Hum fibroblasts. Described as above. To be noted: for increase in PCNA levels (densitometry normalized to GAPDH): preliminary data. The format is cell-based, mouse.
Experimental: (§1) Primary fibroblasts were isolated from LAMT from WT and Arom^Hum mice (n=5/genotype). Cells were treated for 24 hours with increasing doses (0.001, 0.01, 0.1, 1, 5, 10, and 100 nM) of R1881, a synthetic androgen, and compared to untreated cells by western blot.
The subject of experiment [3] is Arom^hum mice. Put plainly: Prevention of inguinal hernia, LAMT fibrosis and atrophy in Arom^hum mice (treatment started before hernia formation). The format is in vivo, mouse. An excerpt: Increased LAMT estrogen levels are associated with LAMT fibrosis, myocyte atrophy, and inguinal hernia development; aromatase inhibitor prevents hernia formation in Arom^hum mice. […] None of the WT littermates (n=32) developed hernia.
In the mouse, the scrotum is connected to the peritoneal cavity with a narrow funicular (or inguinal) canal, whose walls are composed of LAMT. Structurally normal LAMT is essential to maintain the tone of this canal and prevents herniation of bowel. LAMT is the critical site affected by E2 excess (FIGS. 2, 5, 6). As in many other tissues, stromal cells intimately interact with parenchymal cells (myocytes) in UAMT and LAMT (FIG. 6). […] Administration of the aromatase inhibitor letrozole started at 3 weeks of age for 12 weeks prevented LAMT atrophy, fibrosis and herniation in all (10 out of 10) treated Arom^hum mice (FIG. 6B).
Experiment 1a1: Does aromatase inhibition arrest or reverse LAMT fibrosis, atrophy, and hernia in male Arom^hum mice? […] The hernias will be classified as mild, early moderate, late moderate and severe if the bulging area through muscle tissue is <100 mm^2 (˜4 weeks), 100-150 mm^2 (˜6 weeks), 150-200 mm^2 (˜8 weeks), or >200 mm^2 (˜10 weeks), respectively. First, we will treat Arom^hum mice showing mild hernias with letrozole (SC 10 μg/day release pellet) or vehicle starting at 4 weeks of age for 12 weeks^63. We will assess whether muscle fibrosis, atrophy, and hernia can be arrested or reversed in mildly (<100 mm^2) affected animals. If early letrozole treatment can arrest mild muscle fibrosis, we will delay the initiation of treatment to 6, 8, or 10 weeks of age to determine whether letrozole can arrest or reverse the growth of the early moderate (6 weeks), late moderate (8 weeks) or severe hernia (10 weeks). Hernia development will be monitored by visual inspection twice a week for 12 weeks after letrozole administration and will be reported as hernia incidence using Kaplan-Meier curve analysis. The length and width of the observed hernias will be measured to calculate the surface area (length×width). After completion of the treatment, the mice will be dissected, and LAMT, UAMT (control), and serum will be collected. One hundred mg of frozen muscle tissue will be obtained to measure tissue estrogen levels. Circulating and tissue (LAMT and UAMT) E2 levels will be measured at the IIT Research Institute by Dr. Miguel Muzzio (see letter) using LC-MS^2. We will use immunoblotting and IHC to determine ERα expression in LAMT and UAMT.
This finding was published in PNAS in Oct., 2018. […] We treated Arom^hum mice with fulvestrant for 12 weeks starting at the age of 4 weeks (before hernia formation). As expected, placebo-treated Arom^hum mice developed scrotal hernias.

Experiment [4] deals with Arom^hum mice. Put plainly: Reversal of established scrotal hernias and LAMT fibrosis/atrophy in Arom^hum mice. The format is in vivo, mouse. To be noted: for time required to reverse large hernias, compared to fulvestrant treatment / reversal of large scrotal hernia: Arom^hum mice with large hernias. Here is the method: FIG. 16. […] Arom^hum mice with small to moderate size of hernias were treated with placebo or letrozole for 12 weeks. (A) Schematic diagram depicts the schedule of drug administration. (B) The area of scrotal hernia in Arom^hum mice. (C) Representative photomicrographs of Masson's trichrome-stained LAMT sections of WT and Arom^hum mice. Quantification of the percentage of connective tissue or fibrotic area (D) or myofiber area (E) in WT and Arom^hummice. 10 representative high-power fields were analyzed in each tissue. One-way ANOVA with Tukey's multiple comparison test, **p<0.01, ***p<0.001. Scale bars, […]. n=5 mice per group.
FIG. 17. […] Arom^hum mice with small to moderate size of hernias were treated with placebo or letrozole for 3 weeks. (A) Schematic diagram depicts the schedule of drug administration. (B) The area of scrotal hernia in Arom^hum mice.
FIG. 18. E2/ER antagonist fulvestrant reverses the large size of scrotal hernias and rescues LAMT fibrosis and myocyte atrophy in Arom^hum mice. Arom^hum mice with large size of hernias were treated with placebo or fulvestrant for 12 weeks. (A) Schematic diagram depicts the schedule of drug administration. (B) The area of scrotal hernia in Arom^hum mice. (C) Representative photomicrographs of Masson's trichrome-stained LAMT sections of WT and Arom^hum mice. Quantification of the percentage of connective tissue or fibrotic area (D) in WT and Arom^hum mice. 10 representative high-power fields were analyzed in each tissue. (E) Hydroxyproline content in LAMT of WT and Arom^hum mice treated with fulvestrant. One-way ANOVA with Tukey's multiple comparison test, ***p<0.001, ****p<0.0001. n=5 mice per group.
FIG. 19. Aromatase inhibitor letrozole reverses the large size of scrotal hernias in Arom^hum mice. Arom^hum mice with large size of hernias were treated with placebo or letrozole for 12 weeks. (A) Schematic diagram depicts the schedule of drug administration. (B) The area of scrotal hernia in Arom^hum mice.
FIG. 20. E2/ER antagonist raloxifene reverses the large size of scrotal hernias in Arom^hum mice. Arom^hum mice with large size of hernias were treated with placebo or raloxifene for 3 weeks. (A) Schematic diagram depicts the schedule of drug administration. (B) The area of scrotal hernia in Arom^hum mice.
We treated Arom^hum mice with letrozole for 12 weeks. […] Raloxifene is a selective estrogen receptor modulator (SERM) and is currently used to prevent and treat osteoporosis in postmenopausal women.
We treated Arom^hum mice with fulvestrant for 12 weeks when the hernia area was over 200 mm^2. Large hernias were completely disappeared after 3- to 4-week of fulvestrant administration. […] We measured the total amount of collagen (largely type I and III), a major component of ECM, through measuring the content of hydroxyproline(1).

In another experiment the test system is LAMT E2. Put plainly: Serum and LAMT estradiol (E2) by LC-MS^2 after letrozole treatment. To be noted: Arom^hum mice, letrozole 10 μg daily SC pellets starting at week 3. The experiment is classed as in vivo, mouse. How it is done: FIG. 4. (A) Serum estradiol (E2) and (B) LAMT E2 were measured by liquid chromatography-tandem mass spectrometry (LC-MS^2) assay after letrozole (let) treatment (n=10/group). *p<0.05. **p<0.01. Veh, vehicle.
LAMT estrogen levels are increased in Arom^hum mice. Arom^hum mice recapitulate the primary aspects of aromatase expression in men in that most peripheral (extragonadal) tissues, such as skeletal muscle and adipose tissue, express aromatase primarily using the distal promoter 1.4 and, to a lesser extent, the proximal promoter II (FIG. 3)^32. […] Local E2 levels in LAMT, however, are strikingly higher in Arom^hum mice than in WT mice (FIG. 4B).
Increased LAMT estrogen levels are associated with LAMT fibrosis, myocyte atrophy, and inguinal hernia development; aromatase inhibitor prevents hernia formation in Arom^hum mice. […]
Experiment 1a1: Does aromatase inhibition arrest or reverse LAMT fibrosis, atrophy, and hernia in male Arom^hum mice? […] Hernia development will be monitored by visual inspection twice a week for 12 weeks after letrozole administration and will be reported as hernia incidence using Kaplan-Meier curve analysis. The length and width of the observed hernias will be measured to calculate the surface area (length×width). […] Circulating and tissue (LAMT and UAMT) E2 levels will be measured at the IIT Research Institute by Dr. Miguel Muzzio (see letter) using LC-MS^2. […]

Where [5] appears, read: R1881 0.001-100 nM, 24 hours, western blot.
Where [6] appears, read: Arom^hum mice with small to moderate hernias, letrozole for 12 weeks.

“Also recorded” adds a separate entry of the source.

Experimental for LAMT WT fibroblasts: as §1

Take `Cc1c(-c2ccc(O)cc2)nn(-c2ccc(O)cc2)c1-c1ccc(OCCN2CCCCC2)cc1` [MPP, Methyl-Piperidino-Pyrazole]: the “E2-induced expression of estrogen-responsive genes (Pgr and Greb1) and fibrotic genes (Spon2, Kiss1, Eln)” value in experiment [1] is “significantly decreased E2-induced expression of estrogen-responsive genes (Pgr and Greb1) and fibrotic genes (Spon2, Kiss1 and, Eln)”.

With `C[C@]1(O)CC[C@H]2[C@@H]3CCC4=CC(=O)CCC4=C3C=C[C@@]21C` [R1881, (17b)-17-Hydroxy-17-methyl-estra-4,9,11-trien-3-one], the “increase in PCNA levels (densitometry normalized to GAPDH)” value in the experiment on LAMT WT fibroblasts (0.001 nM R1881, 24 hours) is reported as 80%; with LAMT WT fibroblasts (0.01 nM R1881, 24 hours) it was 60%; in experiment [2] (0.001 nM R1881, 24 hours), 20%; in experiment [2] (0.01 nM R1881, 24 hours), 30%. The “decrease in PCNA levels” value in the experiment with LAMT WT fibroblasts (100 nM R1881, 24 hours) amounted to 25%; in experiment [2] (10 nM R1881, 24 hours), 40%; in experiment [2] (100 nM R1881, 24 hours), 30%. Besides, the AR levels result (in the experiment on LAMT WT fibroblasts (setting [5]); in experiment [2] (setting [5])) was “increased AR levels in a dose-dependent manner” each time.

On to `N#Cc1ccc(C(c2ccc(C#N)cc2)n2cncn2)cc1` [letrozole], for which the hernia development result with Arom^hum mice [3] (Arom^hum male mice, letrozole 10 μg daily via subcutaneous slow-release pellets starting at week 3, 12 weeks) was “entirely prevented LAMT fibrosis or inguinal hernia development in all animals; also recorded: prevented hernia development in all Arom^hum mice; also recorded: prevents abdominal bulging, LAMT stromal fibrosis, myocyte atrophy, and inguinal hernias in three lines of Arom^hum mice; also recorded: completely prevented the formation of inguinal hernias”. Moreover, the “ECM content in LAMT” value in the experiment on Arom^hum mice [3] (Arom^hum mice) is “significantly decreased”. The “development of LAMT fibrosis (fibrotic area, Masson's trichrome)” value in the experiment with Arom^hum mice [3] (Arom^hum mice, 4-week-old mice treated for 12 weeks, FIGS. 15C and D) is “completely prevented with letrozole treatment”. Also, the “stromal cell proliferative activity (Ki67-positive stromal cells) in LAMT” value in the experiment with Arom^hum mice [3] (Arom^hum mice, FIG. 7E) was “significantly decreased stromal cell proliferative activity”. The “LAMT atrophy and fibrosis (Masson's trichrome staining)” value in the experiment with Arom^hum mice [3] (Arom^hum mice, letrozole, FIG. 6B) is “prevented LAMT atrophy and fibrosis”. For the same compound, the “treated mice in which LAMT atrophy, fibrosis and herniation were prevented” value with Arom^hum mice [3] (Arom^hum mice, started at 3 weeks of age for 12 weeks) is 10 out of 10. For the same compound, the “time required to reverse large hernias, compared to fulvestrant treatment” value in the experiment with Arom^hum mice [4] is recorded as “require a longer time to reverse large hernias as compared to fulvestrant treatment”. In addition, in the experiment on Arom^hum mice [4] (letrozole for 12 weeks, FIG. 19), the “reversal of large scrotal hernia” value is recorded as “reverses large scrotal hernia”. Further, in the experiment with Arom^hum mice [4] (setting [6]), the muscle fibrosis entry is “reduction in muscle fibrosis” and the myocyte size entry is recorded as “restoration of myocyte size”. Moreover, in the experiment on Arom^hum mice [4] (Arom^hum mice, letrozole for 12 weeks, FIG. 16), the “reversal of mild to moderate size of hernia (150-200 mm^2)” value is “can reverse mild to moderate size of hernia”. For the same compound, the “LAMT E2 levels” value in the experiment on LAMT E2 is recorded as “restored LAMT E2 levels similar to WT LAMT levels”.

As to `O=C(c1ccc(OCCN2CCCCC2)cc1)c1c(-c2ccc(O)cc2)sc2cc(O)ccc12` [raloxifene], the “time required to reverse large hernias, compared to fulvestrant treatment” value in the experiment with Arom^hum mice [4] is given as “require a longer time to reverse large hernias as compared to fulvestrant treatment”. In the experiment on Arom^hum mice [4] (raloxifene for 3 weeks, FIG. 20), the “reversal of large scrotal hernia” value was “reverses large scrotal hernia”. Also, the “reversal of small to large hernias” value with Arom^hum mice [4] (Arom^hum mice, 3-week raloxifene treatment, FIGS. 17 and 20) is recorded as “capable to reverse small to large hernias”. Also, in the experiment on Arom^hum mice [4] (Arom^hum mice, raloxifene for 21 days, FIG. 17), the “reversal of mild to moderate size of hernia” value was “can also reverse mild to moderate size of hernia; also recorded: reverses the small to moderate size of scrotal hernias”.
